Among the data in PubChem BioAssay (NCI) are TGI and GI50 values, retold here.

Test in all cases: NCI-60 cell line screen, 48 h
The test system of test [1] is SK-MEL-5 melanoma.
Test [2] has as its system NCI-H23 lung.
Test [3] deals with MOLT-4 leukemia.
The subject of test [4] is COLO 205 colon.
For test [5], the system named is UACC-257 melanoma.
The subject of test [6] is CAKI-1 renal.
Test [7] deals with UO-31 renal.
In test [8] the test system is HL-60(TB) leukemia.
The test system of test [9] is HT29 colon.
For test [10], the system named is U251 CNS.
For test [11], the system named is LOX IMVI melanoma.

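Assay format: 96-well plates, 48-hour exposure. At the GI50, growth is halved. TGI marks complete inhibition of growth.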

Turning to `CC(=O)N1C(CCc2ccccc2)CC(C)(C=O)C1Cc1ccc(O[Si](C(C)C)(C(C)C)C(C)C)cc1` (centres undefined), the TGI was 7.64 µM in test [1]; 24.3 µM in test [2]; greater than 21.5 µM in [3]; 7.03 µM in test [4]; 10.6 µM in test [5]; 11.2 µM in [6]. The TGI came out at 14.3 µM in [7]; 4.42 µM in test [8]; 9.99 µM in test [9]; 13.3 µM in test [10]; 3.85 µM in test [11].

As to `COCCNCc1ccc(-c2cc3nccc(Oc4ccc(NC(=O)C5(C(=O)Nc6ccc(F)cc6)CC5)cc4F)c3s2)nc1`, the GI50 is 1.46 µM in test [3]; 1.55 µM in test [4]; 1.59 µM in test [5]; 2.08 µM in [6]; 2.29 µM in [8]; 0.912 µM in test [9]. In [10], the GI50 was 1.89 µM. For the same molecule, the TGI amounted to 4.26 µM in test [3]; 3.68 µM in test [4]; 3.33 µM in test [5]; 4.83 µM in [6]; 5.12 µM in [8]; 2.89 µM in [9]. The same molecule returned a TGI in test [10] of 3.79 µM.

In the case of `Cc1ccc(C(C)C)c(OCC(=O)N/N=C/c2c[nH]c3ccc(Br)cc23)c1`, the TGI amounted to 4.43 µM in test [1]; 14.2 µM in test [2]; 14.2 µM in [3]; 3.55 µM in [4]; 15.9 µM in test [5]; 11.5 µM in test [6]. The TGI in [7] came out at 13.7 µM; in test [8] it was 7.42 µM; in test [9] it was 4.78 µM; in test [10], 11.1 µM; in test [11], 16.4 µM.

As for `Nc1nc(Cl)c(N)c(NCC2(CO)CCC(CCc3ccccc3)C2)n1` (centres undefined), the TGI in test [1] was 15.1 µM; in test [2], 28.6 µM; in test [3], 28 µM; in test [4], 25.1 µM; in [5], 18.8 µM; in test [6], 47.2 µM. For the same molecule, the TGI in test [7] was determined as 41.7 µM; in test [8] it was 31.3 µM; in test [9] it was 29.2 µM; in [10], 29 µM; in test [11] it was 25.9 µM.

For the molecule `O=S(O)CCCSSSCCCS(=O)O`, the TGI in test [2], in test [3], in [5], in test [7], in test [8] and in [9] was greater than 100 µM throughout. Moreover, the TGI in test [10] and in test [11] was greater than 100 µM in each case.

With `COc1cc(NCCC(=O)O)c2ncccc2c1`, the TGI in test [1], in test [2], in test [3], in [5], in [7] and in [8] was greater than 100 µM in each case. For the same molecule, the TGI in test [9], in [10] and in test [11] was greater than 100 µM in each case.

On to `CSCC(CO)NC(=O)/C=C/c1c(C)[nH]c(=O)[nH]c1=O` (centres undefined), for which the TGI in test [1] is greater than 875 µM; in test [2], greater than 875 µM; in test [3], greater than 875 µM; in test [4], greater than 775 µM; in [5] it was greater than 875 µM; in test [6], greater than 87.5 µM. For the same molecule, the TGI in test [7], in [8], in test [9], in test [10] and in test [11] was greater than 875 µM throughout.

In the case of `Clc1cc(OCc2nn3c(Cc4ccccc4)nnc3s2)c(Cl)cc1OCc1nn2c(Cc3ccccc3)nnc2s1`, the TGI in test [1] was greater than 100 µM; in test [2] it was greater than 100 µM; in [3], 19.8 µM; in [4] it was greater than 100 µM; in test [5], greater than 100 µM; in test [6] it was greater than 100 µM. Moreover, the TGI in test [7], in [8], in test [9], in test [10] and in [11] was greater than 100 µM each time.

For `Cc1ccc(Nc2nc(=O)c3c([nH]c4ccccc43)s2)cc1`, the TGI in test [1] was 20.8 µM; in test [3], greater than 100 µM; in test [4], 24.7 µM; in test [5], 31.5 µM; in test [6], 24.5 µM; in test [7], 7.32 µM. In addition, the TGI in [8] came to 36.5 µM; in [9], 23.2 µM; in test [10] it was 25.5 µM; in test [11] it was 27.1 µM.

`S=c1[nH]n2c(COc3ccc(Cl)cc3)nnc2s1`: the TGI in test [1], in test [2], in [3], in test [4], in test [5] and in [6] was greater than 100 µM throughout. The TGI in test [7], in [8], in [9] and in test [10] was greater than 100 µM in each case.

As for `COc1ccc(CCc2ccc3c(c2)OCO3)cc1`, the TGI in test [1], in test [2], in test [3], in [4], in test [5] and in [6] was greater than 100 µM throughout. Also, the TGI in test [8], in [9], in test [10] and in test [11] was greater than 100 µM each time.

Take `NNC(=O)c1cc([N+](=O)[O-])ccc1NC(=O)C12CC3CC(CC(C3)C1)C2`: the TGI was greater than 100 µM in test [1]; greater than 100 µM in test [2]; greater than 100 µM in [3]; 64.2 µM in test [4]; 59.3 µM in test [5]; greater than 100 µM in test [6]. The TGI in test [7] was 31.5 µM; in test [8], 22.1 µM; in test [9], greater than 100 µM; in test [10], 37.7 µM; in [11], 20.1 µM.

Regarding `c1ccc2c(c1)SCCc1cn[nH]c1-2`, the TGI in test [1], in [2], in test [3], in test [4], in [5] and in test [6] was greater than 100 µM each time. Besides, the TGI in [7], in [8], in [9], in test [10] and in test [11] was greater than 100 µM throughout.

Regarding `c1csc(-c2ccc(CNc3c4ccccc4nc4ccccc34)cc2)c1`, the GI50 is 1.63 µM in [1]; 1.32 µM in [3]; 2 µM in test [5]; 1.46 µM in test [6]; 1.19 µM in [7]; 1.45 µM in [8]. Besides, the TGI in [1] came to 3.01 µM; in [3] it was 3.74 µM; in [5], 4.06 µM; in test [6] it was 5.61 µM; in test [7], 2.57 µM; in [8], 3.28 µM.

As to `O=C1C(c2c(O)[nH]c3ccc(Cl)cc23)=Nc2ccccc21`, the TGI in test [1] was 17.7 µM; in test [2], 40.1 µM; in [3], greater than 100 µM; in test [4], greater than 100 µM; in test [5], greater than 100 µM; in test [6] it was greater than 71.6 µM. The TGI in test [7] is 2.25 µM; in [8], greater than 100 µM; in test [9] it was greater than 100 µM; in test [10], 17.6 µM; in test [11], greater than 79.7 µM.

As to `NNC(=O)CCc1ccc2ccc3ccccc3c2c1`, the TGI in [1], in test [2], in test [3], in test [4], in test [5] and in [6] was greater than 100 µM each time. Further, the TGI in test [7], in [8], in test [9], in test [10] and in test [11] was greater than 100 µM each time.

As to `CC[C@@H]([C@H](O)c1ccccc1Cl)[N+](=O)[O-]`, the TGI in [1], in test [2], in [4], in [5], in test [6] and in [7] was greater than 100 µM in each case. Besides, the TGI in test [8], in test [9], in test [10] and in test [11] was greater than 100 µM throughout.

With `CN(c1ccccc1)c1nc(=[N+]2CCCC2)ss1`, the TGI in test [1], in test [3], in test [4], in test [5], in test [6] and in test [7] was greater than 100 µM each time. The TGI in test [8] and in test [10] was greater than 100 µM each time.

For the molecule `Cc1cccc2c1Sc1ccccc1C2NC(=O)CN(C)C` (centres undefined), the TGI in [1], in test [2], in test [3], in test [4], in [5] and in test [7] was greater than 100 µM in each case. The TGI in test [8], in [9], in test [10] and in test [11] was greater than 100 µM throughout.

As for `O=C(Sc1n[nH]c(=O)[nH]c1=O)c1cccc2nc3ccccc3nc12`, the TGI in test [1] is 14.5 µM; in [2] it was 26.8 µM; in [3], greater than 100 µM; in test [4], 5.76 µM; in test [5], 39 µM; in test [6], greater than 100 µM. The TGI is greater than 100 µM in test [8], 61.9 µM in test [9], greater than 100 µM in [10] and greater than 100 µM in test [11].

Take `c1ccc(C2=NN=C3C(c4ccccc4)=Nc4ccccc4N3C2)cc1`: the TGI in test [1] was 40.7 µM; in test [2], greater than 100 µM; in test [3] it was greater than 52.3 µM; in test [4] it was 52.8 µM; in test [5], 32.4 µM; in test [6], greater than 100 µM. For the same molecule, the TGI in [7] is greater than 59.4 µM; in test [8], 22.2 µM; in test [9], greater than 69.6 µM; in test [10] it was greater than 100 µM; in test [11] it was greater than 100 µM.

`CO/C=C1\OC(=O)C=C1OC`: the TGI in test [1], in [2], in [3], in test [4], in test [5] and in test [6] was greater than 100 µM each time. Also, the TGI in test [7] was greater than 100 µM; in [8], greater than 100 µM; in test [9] it was greater than 100 µM; in [10], greater than 31.6 µM; in test [11], greater than 100 µM.

Regarding `CC(C)(C)C1=CC(=C2C=Cc3cc(O)ccc3O2)C=C(C(C)(C)C)C1=O`, the TGI in test [1] is 2.94 µM; in [2], 3.58 µM; in test [4], 3.25 µM; in test [5] it was 3.07 µM; in test [6], 3.11 µM; in [7] it was 2.5 µM. For the same molecule, the TGI came out at 3.15 µM in [8], 3.59 µM in test [9], 2.69 µM in test [10] and 3.03 µM in test [11].

As for `O=C(Cn1c(C(=O)/C=C/c2ccc(Cl)cc2)nc2ccccc21)c1ccc(Cl)cc1`, the TGI in test [1] was determined as 29.3 µM; in test [2], 77.6 µM; in [3], 14.5 µM; in test [4], 36.1 µM; in test [5] it was 68.2 µM; in test [7], 43 µM. Also, the TGI in test [8] is 29.1 µM; in test [9] it was 42.5 µM; in [10], 33.4 µM; in [11], 36.5 µM.

With `Nc1ccc(Cn2ccc3c4c(N)nc(N)nc4ccc32)cc1`, the TGI in [1] was 8.24 µM; in test [2], 7.86 µM; in test [3] it was greater than 51.7 µM; in test [4] it was 2.72 µM; in test [5], 8.02 µM; in test [6], 18 µM. Besides, the TGI in test [7] was 19 µM; in test [8], 1.37 µM; in [9], 2.18 µM; in test [10], 5.02 µM; in test [11], 1.21 µM.

With `CC1(C)N=C(c2ccccc2)SC12S[C@@H]1CCCC[C@H]1S2`, the TGI in test [1] is 54.5 µM; in test [2] it was 31.3 µM; in test [3] it was greater than 100 µM; in [4], greater than 100 µM; in [5], greater than 100 µM; in test [6], greater than 100 µM. For the same molecule, the TGI in [7], in [8], in test [9], in [10] and in [11] was greater than 100 µM in each case.
